Data set [1] deals with T1, PSMA (Homo sapiens, UniProt Q04609).
T1 construct: Detection of endogenous PSMA expression in LNCaP and PC3 cells relative to β-actin expression by Western; host or cells: LNCaP human prostate carcinoma cells (monolayer, spheroids or Potter-Elvehjem homogenates)
Nature of the data set: Saturation binding using LNCaP cell homogenates. As to the method: The binding affinity of the nonlabeled CHDT-PSMA-1/2/3, PSMA-1007, PSMA-617, and KuE was assessed in competition binding assays using LNCaP cell homogenates (∼1 × 10^6 cells/mL using Potter-Elvehjem) and the radioligand [^177Lu]Lu-PSMA-617 (n = 5 for CHDT-PSMA-1; n = 4 for CHDT-PSMA-2/3; n = 2 for PSMA-1007; n = 8 for PSMA-617; n = 6 for KuE). […] The assays were performed in a final volume of 200 μL. The incubation was stopped by washing the homogenate with cold PBS four times using a filter (Whatman GF/C, 90 min presoaked in 0.3% polyethylenimine) in a cell harvester (Brandel, USA). The radioactivity bound to the filter was measured in a gamma counter. Filter binding was determined for adjacent samples without cell homogenate. […] The Kd value of [^177Lu]Lu-PSMA-617 was determined in saturation binding assays using LNCaP cell homogenates to be 15.2 (±2.1) nM. […]
Dissociations constants (Kd and Kd,int), as well as maximal binding capacities (Bmax and Bmax,int), were derived from specific binding data by nonlinear regression according to the model of “One site-specific binding” as implemented in GraphPad Prism 10. Protein content was determined using the bicinchoninic acid protein assay kit (Pierce, Thermo Scientific) to calculate the binding capacities in pmol/mg and for the time-depending internalization the internalized percent of administrated dose per μg protein (% AD/μg protein).

The conditions of data set [2]: same conditions; cited from earlier work.
Data set [3] deals with PSMA. Further details: method as in PMID 22369515. As to conditions: cited from earlier work.

T1 sequence (Q04609 whole entry): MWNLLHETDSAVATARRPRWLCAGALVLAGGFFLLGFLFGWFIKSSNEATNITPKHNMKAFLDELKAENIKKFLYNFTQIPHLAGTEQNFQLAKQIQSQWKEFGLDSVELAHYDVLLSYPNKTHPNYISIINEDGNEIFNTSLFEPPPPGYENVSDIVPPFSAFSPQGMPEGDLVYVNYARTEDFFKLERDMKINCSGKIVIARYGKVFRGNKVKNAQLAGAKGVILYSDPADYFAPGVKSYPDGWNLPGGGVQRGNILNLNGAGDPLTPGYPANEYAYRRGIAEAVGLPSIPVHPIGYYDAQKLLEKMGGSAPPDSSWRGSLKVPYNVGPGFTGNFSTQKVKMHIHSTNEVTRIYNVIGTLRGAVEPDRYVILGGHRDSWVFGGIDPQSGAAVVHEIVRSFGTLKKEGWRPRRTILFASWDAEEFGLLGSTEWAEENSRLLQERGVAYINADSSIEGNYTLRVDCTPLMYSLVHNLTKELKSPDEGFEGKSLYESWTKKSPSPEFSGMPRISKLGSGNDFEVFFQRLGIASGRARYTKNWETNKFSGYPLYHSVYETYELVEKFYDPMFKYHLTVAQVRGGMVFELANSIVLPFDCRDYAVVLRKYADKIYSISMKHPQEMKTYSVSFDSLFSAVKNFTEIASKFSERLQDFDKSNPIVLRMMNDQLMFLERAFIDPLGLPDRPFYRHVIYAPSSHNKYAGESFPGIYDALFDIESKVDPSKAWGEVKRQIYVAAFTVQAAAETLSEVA

On to [^177Lu]Lu-PSMA-617, for which the Kd (as a rule, the concentration at which binding is half-saturated) on PSMA [1] worked out at 15.2 nM.
For the compound `O=C(O)CN1CCN(CC(=O)O)CCN(CC(=O)O)CCN(CC(=O)O)CC1` [DOTA], in data set [2], the “64Cu-transchelation in human serum” value is reported as “only minimal”.
In the case of `O=C(O)CCc1ccc(O)c(CN(CCN(CC(=O)O)Cc2cc(CCC(=O)NCCCCCC(=O)NCCCC[C@H](NC(=O)N[C@@H](CCC(=O)O)C(=O)O)C(=O)O)ccc2O)CC(=O)O)c1` [PSMA-11], the Ki (commonly a dissociation constant, usually derived from enzyme kinetics or from competition with a known ligand) at PSMA [3] was 12 nM.

The record behind these values is paper PMC11417994, “Cyclohexanediamine Triazole (CHDT) Functionalization Enables Labeling of Target Molecules with Al^18F/^68Ga/^111In” (Bioconjugate Chemistry, 2024).
